Reference: patent publication US12162878B2 (HINOVA PHARMACEUTICALS INC., priority 2018, dated 2024)

Tests used:
Assay type in all cases: cell-based, human
[1] = tested on: MDA-MB-231 cells; assay: Inhibition of proliferation of MDA-MB-231 cells (CCK-8); conditions: for IC50: Homo sapiens, 144 h, 6 days, CCK-8
Description: (§1) • MDA-MB-231 cell line (Cell Bank of Chinese Academy of Sciences, TCHu104) • FBS (Gibco, Cat. No. 10099-141) • 0.01M PBS (Biosharp, Cat. No. 162262) • RIPM1640 (Hyclone, Cat. No. 308090.01) • Penicillin-Streptomycin (Hyclone, Cat. No. SV30010) • Cell counting kit-8 (Signalway Antibody, Cat. No. CP002) • DMSO (Sigma, Cat. No. D5879) • Centrifuge Tube, 15 ml (Excell Bio, Cat. No. CS015-0001) • Cell Culture Dish, (Excell Bio, Cat. No. CS016-0128) • 96-well cell culture cluster (Corning, Cat. No. 3599) 3. Experimental Method
1) MDA-MB-231 cells were subcultured in cell culture media, and the cells in good growth condition were seeded in a 96-well plate, 80 μL for each well, thus the number of cells per well was 1500, then the plate was cultured overnight in a 37° C., 5% CO2 cell incubator.
(§2) 2) The drug was prepared with dimethyl sulfoxide (DMSO) as a 10 mM stock solution. Prior to use, the solution was diluted 3 times with DMSO, and then diluted with a 3-fold gradient to obtain 9 concentration gradients. Then, each concentration of the compound was further diluted 200 times with the culture media (to ensure that DMSO concentration in the culture system was 0.1%), 2 repeat wells for each concentration. The diluted solution of each compound (20 μL) was added to the cell culture well (with a final concentration of 10 μM, 3.3 μM, 1.1 μM . . . ), and shaken gently for mixing. In addition, three negative control wells containing only cells and three blank control wells containing only culture medium (20 μL DMSO diluted 200 times with culture medium being added to six wells) were included.
(§3) (1) After culturing for 6 days, 10 μL CCK-8 was added to each well and cultured for additional 2.5 h in a 37° C., 5% CO2 cell incubator.
(§4) (2) The absorbance (OD value) at 450 nm was measured with a multifunctional microplate reader.
(§5) (3) The data was analyzed by the Dose-response-inhibition equation in the software GraphPad Prism6, and the IC50 value was obtained.

[2] = tested on: MDA-MB-453 cells; assay: Inhibition of proliferation of MDA-MB-453 cells (CCK-8); conditions: for IC50: Homo sapiens, 144 h, 6 days, CCK-8
Description: as §1, with “MDA-MB-453” for “MDA-MB-231”, “TCHu35)” for “TCHu104)”
1) MDA-MB-453 cells were subcultured in cell culture media, and the cells in good growth condition were seeded in a 96-well plate, 80 μL for each well, thus the number of cells per well was 1500, then the plate was cultured overnight in a 37° C., 5% CO2 cell incubator.
as §2, §3, §4, §5

[3] = tested on: CWR22RV1 cells; assay: Inhibition of proliferation of CWR22RV1 cells (CCK-8); conditions: Homo sapiens, CWR22Rv1, 144 h, 6 days
Procedure, shortened: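 Cells seeded at 1500/well, cultured overnight, then exposed to compounds in 3-fold dilutions (9 concentrations from 10 μM top final, 0.1% DMSO) for 6 days at 37 °C. Viability read by CCK-8 absorbance at 450 nm after 2.5 h; IC50 from dose-response inhibition fit.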

| Structure (SMILES) | IC50 [1] [nM] | IC50 [2] [nM] | IC50 [3] [nM] | inhibitory action on MDA-MB-453 cells (in words) [2] | inhibitory action on MDA-MB-231 cells (in words) [1] |
| --- | --- | --- | --- | --- | --- |
| [2H]C([2H])([2H])n1cc(-c2cc(NS(=O)(=O)CC)ccc2N2CCC3(CC2)CC3)c2cc[nH]c2c1=O [Compound 41] | 7540 | 89 | 5 |  |  |
| [2H]C([2H])([2H])n1cc(-c2cc(S(=O)(=O)CC)ccc2N2CCC3(CC3)C2)c2cc[nH]c2c1=O [Compound 55, 4-(5(ethylsulfonyl)-2-(5-aza-spiro[2.4]heptan-5-yl)phenyl)-6-trideuteromethyl-1H-pyrrolo[2,3-c]pyridin-7(6H)-one] | 749 | 48 | 21 | effective inhibitory action |  |
| [2H]C([2H])([2H])n1cc(-c2cc(S(C)(=O)=O)ccc2N2CCC3(CC2)CC3(F)F)c2cc[nH]c2c1=O [Compound 184, 4-(2-(1,1-difluoro-6-aza-spiro[2.5]octan-6-yl)-5-(methylsulfonyl)phenyl)-6-trideuteromethyl-1H-pyrrolo[2,3-c]pyridin-7(6H)-one] | 26 | 440 | 8.1 |  | effective inhibitory action |
| [2H]C([2H])([2H])n1cc(-c2cc(S(C)(=O)=O)c(F)cc2N2CCC3(CC2)CC3(F)F)c2cc[nH]c2c1=O [Compound 219, 4-(2-(1,1-difluoro-6-aza-spiro[2.5]octan-6-yl)-4-fluoro-5-(methylsulfonyl)phenyl)-6-trideuteromethyl-1H-pyrrolo[2,3-c]pyridin-7(6H)-one] |  |  | 7.1 |  |  |
